In assay [1] the target is T1, Streptavidin (Streptomyces avidinii, UniProt P22629). The following applies: biotin mimicking peptide binding streptavidin; read-out: affinity; cited from earlier work.
The target in assay [2] is T1, Streptavidin. The assay can be described thus: Streptavidin-APC staining of HEK 293T cells transfected with tag constructs, flow cytometry. In kind it is cell-based. The note with it: 48 hrs post-transfection. Here is the method:
A. Schematic diagram of the amino acid sequences of the six Streptavidin-binding tags on a CD8 stalk. These constructs co-express the green fluorescent protein (eGFP) via an internal ribosome entry sequence (IRES) downstream of the first open reading frames. B. The constructs were transfected into HEK 293T cells and stained with Streptavidin-APC 48 hours post-transfection and analysed by flow-cytometry. Binding of streptavidin (y-axis) is plotted against eGFP signal.
FIG. 3: Transfection of 293T cells with StreptagII, Flankedccstreptag and ccstretag epitopes in three different formats shown in FIG. 2. 293T cells were also transfected with an irrelevant protein (HA1-TCR beta) co-expressed with eGFP as a negative control. […] Tags were expressed on either a CD8 stalk, a GPI anchor (×1) with one open reading frame or with a GPI anchor (×2) with two copies of the open reading frame. 293T cells transfected with the tagging proteins were stained with Streptavidin APC. The cells were all analysed by flow-cytometry and Streptavidin APC binding (y-axis) is plotted against eGFP signal (x-axis).
An expression construct coding for a signal peptide attached to the amino terminal of theses tags was generated. In addition, the carboxy terminal of these peptide tags was attached to the CD8 stalk, CD8 transmembrane domain and a short part of the CD8 endodomain sufficient to anchor the protein to the membrane. To test their binding to streptavidin, HEK 293T cells were transfected with each construct individually and 48 hrs post-transfection cells were harvested and stained with Streptavidin conjugated to the fluorophore Allophycocyanin (APC) (FIG. 1B).
The optimal format to express these tags on the cell surface for streptavidin binding was then investigated. Additional plasmids were constructed where these tags are expressed on a GPI anchor with one copy of the tags' open reading frames and GPI anchor with two copies of the open reading frames separated by a CD8-based linker (the annotated amino acid sequences of these constructs are depicted in FIG. 2). The binding of these tags was compared with that of the original constructs where the epitopes were placed on a CD8 stalk.
To test their binding to Streptavidin, HEK 293T cells were transiently transfected with the constructs and stained 48 hrs post-transfection with Streptavidin-APC (FIG. 3).
(In general: A flow cytometer gives signals particle by particle.)

For assay [3], the system named is NT-293T cells. In kind it is cell-based, human.
Assay [4] has as its system K562 cells. Briefly: Sorting of K562 cells expressing flankedccstreptag, RQR8, GST or H6 tags with their respective beads. In kind it is cell-based. The note with it: for eGFP positive cells in the flow-through fraction / eGFP positive cells in the sorted fraction: K562, respective beads, 12 days post sorting; for eGFP positive cells, pre-sorted population: retrovirally transduced K562 before sorting. Here is the method: K562 cells were retrovirally transduced with the four constructs individually. Subsequently cell populations were sorted with their respective beads as per manufacturer protocol. Protein-A Dynabeads were previously incubated with clinical grade human-rituximab over-night at 4 C and washed 5× with PBS to remove any unbound rituximab before adding it to the cells. Sorted fractions were collected as well as the flow through for all sorting. Fractions were assessed for positive cells based on eGFP expression by flow cytometery with a blank channel to account for auto fluorescence from dead cells.
The efficiencies of the different tags (GST, RQR8 and His-tag) at purifying lentiviral particles from cellular media, was tested using the approach previously described for flankcedccstreptag (see Example 2), i.e. by sorting K562 cells expressing these tags on their surface. K562 cells were retrovirally transduced with flankedccstreptag, GST, RQR8 and H6 epitopes separately (FIG. 8, Pre-sorted column). Transduced cells represented a minority of the total population based on eGFP expression; therefore cells were not mixed with NT-K562 cells. Populations expressing flankedccstreptag at 10.5%, RQR8 at 9.75%, GST at 22.7% and H6 […] were thereafter sorted with Streptavidin Dynabeads, human rituximab previously incubated with protein-A bead, Glutathione magnetic beads and His-tag Dynabeads respectively.
Collected fractions were assessed for positive cells 12 days-post sorting. […] Moreover, K562 cells expressing GST epitope were successfully purified from pre-sorting population with 91% eGFP positive cells present in the sorted fraction. […] Conversely, K562 expressing H6 sorting was less successful as only 26.1% of cells in the sorted fraction were eGFP positive while 71.1% of cells were eGFP negative. Additionally, 59.2% eGFP positive cells were in the flow-through. The GST and RQR8 tags therefore show the best activity with regard to purifying viral particles from cellular supernatant in the same manner as flankcedccstreptag epitope.

The subject of assay [5] is K562 cells. The assay can be described thus: Sorting of K562 cells expressing Flankedccstreptag formats with streptavidin beads. In kind it is cell-based. Here is the method: Transduced K562 were close to 100% positive for the transgenes after transduction. Positive cells were mixed with non-transduced (NT) K562 pre-sorting. The mixture was incubated with both streptavidin dynabeads (Life technologies, Cat. No. 65601) and streptavidin-microbeads (Miltenyi, Cat. No. 130-048-101) as per manufacturer protocol. The sorted cellular fraction was collected as well as flow-through fraction for both protocols. Sorting was assessed by streptavidin-APC staining and for eGFP positive cell populations 9 days post sorting by flow cytometry.
To establish that the two versions of Flankedccstreptag are able to purify lentivirus from cellular supernatant, an initial experiment was carried out involving sorting of K562 cells expressing these tags on their surface using streptavidin beads. We reasoned that if the tags could attach to a streptavidin matrix while expressed on cells with sufficient stability to allow sorting of expressing cells, they should be suitable for lentiviral capture too.
K562 cells were retrovirally transduced to express the two tags and transduction efficiencies were determined by eGFP expression using flow cytometry (FIG. 4 Transduced K562 plot). Subsequently, transduced cells were mixed with non-transduced K562 to assess the efficiency of sorting using two streptavidin-beads sourced from Life technologies (Dynabeads) and Miltenyi (Microbeads). […]

Consider seven substances from patent US10745715B2, “Method and means for purifying retroviral vectors” (UCL BUSINESS PLC, priority 2014, dated 2020).

No end group written: not given here.

T1 sequence (P22629 25-183): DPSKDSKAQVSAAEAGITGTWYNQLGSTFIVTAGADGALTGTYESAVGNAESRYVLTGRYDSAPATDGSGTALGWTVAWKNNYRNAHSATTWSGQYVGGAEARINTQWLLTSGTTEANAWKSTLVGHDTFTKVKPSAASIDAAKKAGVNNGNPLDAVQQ

As for “biotin mimicking peptide DVEAWLGAR (SEQ ID NO: 36) (Biotin mimicking peptide, short nanotag)”, in assay [1], the Kd was 17 nM. For the same substance, the “binding to Streptavidin-APC” value in assay [2] (tag on CD8 stalk) is given as “did not exhibit any binding”.
“biotin mimicking peptide WSHPQFEK (SEQ ID NO: 1) [streptagll]”: in assay [1], the Kd was 72000 nM. The “binding to Streptavidin-APC” value in assay [2] (tag on CD8 stalk) was “successfully bound”.
As for “Flankedccstreptag: biotin mimic tag AECHPQGPPCIEGRK (SEQ ID NO: 2) expressed at the cell surface as tagging protein (Biotin mimicking peptide, flankedccstreptag)”, in assay [2] (tag on CD8 stalk), the “binding to Streptavidin-APC” value was “successfully bound”. Further, the “binding to Streptavidin-APC” value in assay [2] (tag on GPI anchor, two open reading frames (x2)) is “higher binding efficiency than StreptagII and ccstreptag”. In assay [3], the “transduction efficiency, neat supernatant” value is “high transduction efficiencies”. For the same substance, in assay [4], the “eGFP positive cells in the flow-through fraction” value was “absence of eGFP positive cells”; the “eGFP positive cells in the sorted fraction” value is 93.6%; the “eGFP positive cells, pre-sorted population” value amounted to 10.5%.
Take “flankedccstreptag-d8-x2-GPI: two Flankedccstreptag copies separated by CD8-based linker (SEQ ID NO: 5) on a GPI anchor (ECHPQGPPCIEGRKSSGGGGSPAPRPPTPAPTIASECHPQGPPCIEGRKS; cysteine pairing not given here; also: on a GPI anchor, small tags and cut ends left off)”: the “sorting of tag-expressing K562 cells from mixture with NT K562” value is on record as “successful” in assay [5] (streptavidin microbeads (Miltenyi)) and “successfully sorted” in assay [5] (streptavidin-dynabeads (Life technologies), eGFP).
For the substance “biotin mimicking peptide DVEAWLDERVPLVET (SEQ ID NO: 35) (Biotin mimicking peptide, long nanotag)”, the Kd in assay [1] is 3.6 nM. Further, the “binding to Streptavidin-APC” value in assay [2] (tag on CD8 stalk) is “did not exhibit any binding”.
As to “RQR8: tag with rituximab-binding and Qbend10 epitopes on CD8 stalk, SEQ ID NO: 21”, in assay [3], the “transduction efficiency, neat supernatant” value was “high transduction efficiencies”. Besides, in assay [4], the “eGFP positive cells in the flow-through fraction” value is “absence of eGFP positive cells”; the “eGFP positive cells in the sorted fraction” value amounted to 89.4%; the “eGFP positive cells, pre-sorted population” value came to 9.75%.
Consider “disulphide constrained biotin mimicking peptide CHPQGPPC (SEQ ID NO: 3) [ccstreptag]”, for which, in assay [1], the Kd was 230 nM. Besides, the “binding to Streptavidin-APC” value in assay [2] (tag on CD8 stalk) was “successfully bound”.
